Like-named read-outs stand apart in the source and are kept apart here.
Legend:
[1] = Determination of the therapeutical index (UD50/ED40); format: in vivo, rat; conditions: gastric ulcers UD50 / paw edema ED40
Method: From the UD50 /ED40 ratio (antiinflammatory activity values obtained from the regression lines for dose--AUC) the therapeutic index were calculated (Table 5).

[2] = system: Carrageenin-induced paw edema in the rat; assay: Carrageenin paw edema in the rat; format: in vivo; conditions: for % inhibition vs controls, AUC (paw edema): AUC of paw volume against time
Method: Paw edema was induced in male rats fasted for 18 h but with free access to water, by the method of WINTER et al. (Winter C. A. et al. Proc. Soc. Exp. Biol. Med. 111, 544, 1962) injecting 0.1 ml carrageenin 1% in physiological saline into the right hind paw aponeurosis.
60 min before induction of edema the drugs suspended in 0.2% Tween
80 aqueous solution were dosed by gastric tube (20 ml/Kg); the controls received the vehicle only.
The volume of the right paw was measured by plethysmography immediately before (time 0) and 1, 2, 3, 4, 6 h after subplantar injection of the irritant.
The area under the curve expressing the paw volume plotted against time (AUC) was calculated for each animal.
The results, expressed as percent inhibition of edema development in treated animals as compared to the controls and as ED40 values obtained from the regression lines for dose-AUC, are reported in Table 2.

[3] = Acute toxicity, single oral administration; conditions: mouse, in vivo, read-out: LD50 approx
Method: The toxicity for single administration has been determined by the oral route in IVa:NMRI (SPF) fasted male mice, with water ad libitum, 18 hours before the experiment.

[4] = system: phenylquinone writhings in the mouse; assay: Phenylquinone writhings in the mouse; format: in vivo; conditions: for ED50: Mus musculus, from dose-response curves; for ED50 / % inhibition vs controls (writhings) / No. of writhings (X ± SE): oral
Method: The method used was that of SIEGMUND et al. (Siegmund et al. J. Pharmacol. Exp. Ther. 119, 184, 1957) modified (Arzneim. Forsch. 31(1), 87, 1981).
Male mice, 19-22 g, fasted for 18 h with free access to water, received the test drugs suspended in 0.2% Tween 80 aqueous solution (10 ml/Kg) by esophageal tube, the controls receiving the vehicle only.
One hour later all the animals were given an intraperitoneal injection of 0.02% phenylquinone solution in 5% aqueous ethanol (10 ml/Kg).
A `blind` observer recorded the number of writhings in each animal from the 5th to the 15th min after phenylquinone administration.

[5] = Acute effect on gastrointestinal tract: gastric ulcers in the rat; format: in vivo; conditions: rat, in vivo, po
Method: (§1) Male rats weithing 250-280 g were starved for 18 h but allowed free access to water and the drugs were delivered by esophageal tube (suspension in 0.2% Tween 80 aqueous solution, 10 ml/Kg).
(§2) Control animals received the vehicle only (10 ml/Kg).
(§3) Five hours after drug administration the rats were killed.
(§4) The stomach was slit along the lesser curvature, washed under running water and examined for haemorrhagic lesions in the glandular part of the mucosa: these lesions will be conventionally defined as `ulcers`.
(§5) The following were recorded:
(§6) (a) the sum of the maximum diameters of all the ulcerated spots;
(§7) (b) the number of ulcerated spots.
(§8) The UD50 was calculated by the method of LITCHFIELD and WILCOXON (Litchfield J. T., Wilcoxon F. J. Pharm. Exp. Ther. 96, 99-113, 1949), all animals with gastric lesion whose sum (a) was 2 mm or more being rated as `ulcerated`.

[6] = system: gastric ulcers in the rat; assay: as above; format: in vivo; conditions: for Potency ratio relative to timegadine: gastric ulcers, UD50; for Gastric ulcers (X ± SE), No. / Gastric ulcers (X ± SE), mm / Rats with gastric ulcers: oral; for Gastric ulcers (X ± SE), No.: number of ulcerated spots; for Gastric ulcers (X ± SE), mm: sum of maximum diameters; for Rats with gastric ulcers: ulceration 2 mm and over
Method: as §1, §2, §3, §4, §5, §6, §7, §8

[7] = Rattus norvegicus, oral, from regression lines for dose-AUC (Table 2), read-out: ED40
[8] = restated in Table 5, from regression lines for dose-AUC

CSc1cc(NC(=Nc2nccs2)NC2CCCCC2)c2ccccc2n1 [Compound I, N-cyclohexyl-N"-4-(2-methylthioquinolyl)-N'-2-thiazolyl-guanidine]
T.I. (UD50/ED40) [1]: 7.99 | ED40 [2, 7]: 111 µmol/kg | Potency ratio relative to timegadine ([2]; carrageenin paw edema, ED40 (Table 2)): 1.32 | antiinflammatory activity compared with timegadine ([2]; in words): higher than those of timegadine | % inhibition vs controls (paw edema), 1 h ([2]; oral, 30 μmol/kg): 4% | % inhibition vs controls (paw edema), 2 h ([2]; oral, 30 μmol/kg): 47% | % inhibition vs controls (paw edema), 3 h ([2]; oral, 30 μmol/kg): 40% | % inhibition vs controls (paw edema), 4 h ([2]; oral, 30 μmol/kg): 28% | % inhibition vs controls (paw edema), 6 h ([2]; oral, 30 μmol/kg): 8% | % inhibition vs controls, AUC (paw edema) ([2]; oral, 30 μmol/kg): 27.9% | % inhibition vs controls (paw edema), 1 h ([2]; oral, 91 μmol/kg): 13% | % inhibition vs controls (paw edema), 2 h ([2]; oral, 91 μmol/kg): 51% | % inhibition vs controls (paw edema), 3 h ([2]; oral, 91 μmol/kg): 48% | % inhibition vs controls (paw edema), 4 h ([2]; oral, 91 μmol/kg): 42% | % inhibition vs controls (paw edema), 6 h ([2]; oral, 91 μmol/kg): 17% | % inhibition vs controls, AUC (paw edema) ([2]; oral, 91 μmol/kg): 37.3% | % inhibition vs controls (paw edema), 1 h ([2]; oral, 274 μmol/kg): 17% | % inhibition vs controls (paw edema), 2 h ([2]; oral, 274 μmol/kg): 53% | % inhibition vs controls (paw edema), 3 h ([2]; oral, 274 μmol/kg): 58% | % inhibition vs controls (paw edema), 4 h ([2]; oral, 274 μmol/kg): 56% | % inhibition vs controls (paw edema), 6 h ([2]; oral, 274 μmol/kg): 33% | % inhibition vs controls, AUC (paw edema) ([2]; oral, 274 μmol/kg): 49.0% | ED40 [2, 8]: 111 µmol/kg | LD50 ([3]; po): > 1000 mg/kg | ED50 [4]: 18.7 µmol/kg | analgesic activity compared with timegadine ([4]; in words): higher than those of timegadine | % inhibition vs controls (writhings) ([4]; 18.3 μmol/Kg): 47.0% | No. of writhings (X ± SE) ([4]; 18.3 μmol/Kg): 19.5 ± 4.8 | % inhibition vs controls (writhings) ([4]; 55 μmol/Kg): 79.3% | No. of writhings (X ± SE) ([4]; 55 μmol/Kg): 7.6 ± 2.4 | % inhibition vs controls (writhings) ([4]; 164 μmol/Kg): 96.5% | No. of writhings (X ± SE) ([4]; 164 μmol/Kg): 1.3 ± 0.5 | Potency ratio relative to timegadine ([4]; phenylquinone writhings, ED50): 3.1 | TD50 at 5 h [5]: 887 µmol/kg | Potency ratio relative to timegadine [6]: 0.47 | gastric irritant potential compared with timegadine ([6]; in words): lesser gastric irritant potential | Gastric ulcers (X ± SE), No. ([6]; 115 μmol/Kg): 0.5 ± 0.3 | Gastric ulcers (X ± SE), mm ([6]; 115 μmol/Kg): 0.5 ± 0.3 mm | Rats with gastric ulcers ([6]; 115 μmol/Kg): 1/10 | Gastric ulcers (X ± SE), No. ([6]; 230 μmol/Kg): 0.6 ± 0.3 | Gastric ulcers (X ± SE), mm ([6]; 230 μmol/Kg): 1.2 ± 0.8 mm | Rats with gastric ulcers ([6]; 230 μmol/Kg): 1/10 | Gastric ulcers (X ± SE), No. ([6]; 461 μmol/Kg): 2.1 ± 1.0 | Gastric ulcers (X ± SE), mm ([6]; 461 μmol/Kg): 3.8 ± 1.8 mm | Rats with gastric ulcers ([6]; 461 μmol/Kg): 4/10 | Gastric ulcers (X ± SE), No. ([6]; 922 μmol/Kg): 4.8 ± 1.5 | Gastric ulcers (X ± SE), mm ([6]; 922 μmol/Kg): 8.7 ± 3.5 mm | Rats with gastric ulcers ([6]; 922 μmol/Kg): 5/10

Cc1cc(/N=C(\Nc2nccs2)NC2CCCCC2)c2ccccc2n1 [timegadine, N-cyclohexyl-N"-4-(2-methylquinolyl)-N'-2-thiazolyl guanidine, reference compound]
T.I. (UD50/ED40) [1]: 2.83 | ED40 [2, 7]: 147 µmol/kg | % inhibition vs controls (paw edema), 1 h ([2]; oral, 30 μmol/kg): 17% | % inhibition vs controls (paw edema), 2 h ([2]; oral, 30 μmol/kg): 18% | % inhibition vs controls (paw edema), 3 h ([2]; oral, 30 μmol/kg): 11% | % inhibition vs controls (paw edema), 4 h ([2]; oral, 30 μmol/kg): 15% | % inhibition vs controls (paw edema), 6 h ([2]; oral, 30 μmol/kg): 4% | % inhibition vs controls, AUC (paw edema) ([2]; oral, 30 μmol/kg): 12.3% | % inhibition vs controls (paw edema), 1 h ([2]; oral, 91 μmol/kg): 38% | % inhibition vs controls (paw edema), 2 h ([2]; oral, 91 μmol/kg): 51% | % inhibition vs controls (paw edema), 3 h ([2]; oral, 91 μmol/kg): 30% | % inhibition vs controls (paw edema), 4 h ([2]; oral, 91 μmol/kg): 27% | % inhibition vs controls (paw edema), 6 h ([2]; oral, 91 μmol/kg): 9% | % inhibition vs controls, AUC (paw edema) ([2]; oral, 91 μmol/kg): 28.4% | % inhibition vs controls (paw edema), 1 h ([2]; oral, 274 μmol/kg): 33% | % inhibition vs controls (paw edema), 2 h ([2]; oral, 274 μmol/kg): 55% | % inhibition vs controls (paw edema), 3 h ([2]; oral, 274 μmol/kg): 58% | % inhibition vs controls (paw edema), 4 h ([2]; oral, 274 μmol/kg): 57% | % inhibition vs controls (paw edema), 6 h ([2]; oral, 274 μmol/kg): 44% | % inhibition vs controls, AUC (paw edema) ([2]; oral, 274 μmol/kg): 52.9% | ED40 [2, 8]: 147 µmol/kg | LD50 ([3]; oral, single administration, male mice, interpolation on Probits paper): > 1000 mg/kg | ED50 [4]: 58.9 µmol/kg | % inhibition vs controls (writhings) ([4]; 18.3 μmol/Kg): 26.1% | No. of writhings (X ± SE) ([4]; 18.3 μmol/Kg): 27.2 ± 4.1 | % inhibition vs controls (writhings) ([4]; 55 μmol/Kg): 36.4% | No. of writhings (X ± SE) ([4]; 55 μmol/Kg): 23.4 ± 4.6 | % inhibition vs controls (writhings) ([4]; 164 μmol/Kg): 82.1% | No. of writhings (X ± SE) ([4]; 164 μmol/Kg): 6.6 ± 2.9 | TD50 at 5 h [5]: 413 µmol/kg | Potency ratio relative to timegadine [6]: 1 | Gastric ulcers (X ± SE), No. ([6]; 115 μmol/Kg): 0.3 ± 0.2 | Gastric ulcers (X ± SE), mm ([6]; 115 μmol/Kg): 0.4 ± 0.2 mm | Rats with gastric ulcers ([6]; 115 μmol/Kg): 0/10 | Gastric ulcers (X ± SE), No. ([6]; 230 μmol/Kg): 0.8 ± 0.3 | Gastric ulcers (X ± SE), mm ([6]; 230 μmol/Kg): 1.3 ± 0.7 mm | Rats with gastric ulcers ([6]; 230 μmol/Kg): 2/10 | Gastric ulcers (X ± SE), No. ([6]; 461 μmol/Kg): 4.4 ± 1.5 | Gastric ulcers (X ± SE), mm ([6]; 461 μmol/Kg): 6.7 ± 2.3 mm | Rats with gastric ulcers ([6]; 461 μmol/Kg): 6/10 | Gastric ulcers (X ± SE), No. ([6]; 922 μmol/Kg): 9.4 ± 1.8 | Gastric ulcers (X ± SE), mm ([6]; 922 μmol/Kg): 18.5 ± 4.4 mm | Rats with gastric ulcers ([6]; 922 μmol/Kg): 9/10

From patent US4839366A, “Methylthioquinolyl guanidine derivative, process of preparation thereof and pharmaceutical compositions therefrom” (Chiesi Farmaceutici S.p.A., priority 1983, dated 1989)
